# Measurements published in ChEMBL document CHEMBL4765295, “Synthesis, pharmacological profile and 2D-QSAR studies of curcumin-amino acid conjugates as potential drug candidates” (Eur J Med Chem, 2020).
# Values joined by “and” are separate entries in the source; they are usually repeats but may differ in a detail not shown here. Equal entries are not always repeated.
# System: Mus musculus
# Assay: Analgesic activity in albino mouse assessed protection against acetic acid-induced abdominal writhing at 10 mg/kg, ip pretreated for 1 hr followed by acetic acid challenge and measured starting 5 mins post acetic acid challenge for 10 mins relative to control (reference value: 0 %)
# Type: functional
# Conditions: time 75 min, 1.25 h
row,Compound,Activity [%]
1,COc1cc(/C=C/C(=O)/C=C(O)/C=C/c2ccc(OC(=O)[C@@H](CCSC)NC(=O)OCc3ccccc3)c(OC)c2)ccc1OC(=O)[C@@H](CCSC)NC(=O)OCc1ccccc1,17.9

# System: Mus musculus
# Assay: Analgesic activity in albino mouse assessed as forepaw licking/jumping latency time at 10 mg/kg, ip measured after 30 mins by hot plate test (reference value: 5.02 +/- 0.09 sec)
# Type: functional
# Conditions: 0.5 h
row,Compound,Time [s]
1,COc1cc(/C=C/C(=O)/C=C(O)/C=C/c2ccc(OC(=O)[C@@H](CCSC)NC(=O)OCc3ccccc3)c(OC)c2)ccc1OC(=O)[C@@H](CCSC)NC(=O)OCc1ccccc1,5.48

# System: Rattus norvegicus
# Assay: Antiinflammatory activity in Wistar rat model of carrageenan-induced paw edema assessed as reduction in thickness of paw edema at 10 mg/kg, ip pretreated for 1 hr followed by carrageenan challenge and measured after 1 hr (reference value: 2.41 +/-0.05 mm)
# Type: functional
# Conditions: time 1 hr after carrageenan
row,Compound,Activity [mm]
1,COc1cc(/C=C/C(=O)/C=C(O)/C=C/c2ccc(OC(=O)[C@@H](CCSC)NC(=O)OCc3ccccc3)c(OC)c2)ccc1OC(=O)[C@@H](CCSC)NC(=O)OCc1ccccc1,0.51

# System: Candida albicans
# Assay: Antifungal activity against Candida albicans incubated for 18 to 24 hrs by CLSI method
# Type: functional
# Conditions: time 18-24 hrs
row,MIC,Compound
1,0.125 µg/mL and 0.139 µM,COc1cc(/C=C/C(=O)/C=C(O)/C=C/c2ccc(OC(=O)[C@@H](CCSC)NC(=O)OCc3ccccc3)c(OC)c2)ccc1OC(=O)[C@@H](CCSC)NC(=O)OCc1ccccc1

# System: not listed separately
# Assay: Toxicity in albino mouse assessed as induction of toxic symptoms at 50 to 100 mg/kg, ip measured after 24 hrs
# Type: organism-based
# Conditions: in vivo, dose 50-100 mg/kg
row,Compound,Activity
1,COc1cc(/C=C/C(=O)/C=C(O)/C=C/c2ccc(OC(=O)[C@@H](CCSC)NC(=O)OCc3ccccc3)c(OC)c2)ccc1OC(=O)[C@@H](CCSC)NC(=O)OCc1ccccc1,Non-Toxic

# System: not listed separately
# Assay: Ulcerogenic activity in fasted albino mouse assessed as incidence of gastric ulceration at 10 mg/kg, po for 3 days (reference value: 0 %)
# Type: toxicity, organism-based
# Conditions: in vivo, 72 h, time 3 day
row,Compound,Activity [%]
1,COc1cc(/C=C/C(=O)/C=C(O)/C=C/c2ccc(OC(=O)[C@@H](CCSC)NC(=O)OCc3ccccc3)c(OC)c2)ccc1OC(=O)[C@@H](CCSC)NC(=O)OCc1ccccc1,0

# System: Peritoneal macrophage
# Assay: Antiinflammatory activity in […] mouse Peritoneal macrophages assessed as inhibition of LPS-induced NO production at 10 uM preincubated for 1 hr followed by LPS stimulation measured after 24 hrs by Griess method relative to control (reference value: 0.0 %)
# Type: functional
# Parameters: scale not given: the % may be the effect or the level left
# Conditions: time 25 hrs
row,Compound,Activity [%]
1,COc1cc(/C=C/C(=O)/C=C(O)/C=C/c2ccc(OC(=O)[C@@H](CCSC)NC(=O)OCc3ccccc3)c(OC)c2)ccc1OC(=O)[C@@H](CCSC)NC(=O)OCc1ccccc1,40.84

# System: Mus musculus
# Assay: Analgesic activity in albino mouse assessed as forepaw licking/jumping latency time at 10 mg/kg, ip measured after 120 mins by hot plate test (reference value: 2.62 +/- 0.06 sec)
# Type: functional
# Conditions: 2 h
row,Compound,Time [s]
1,COc1cc(/C=C/C(=O)/C=C(O)/C=C/c2ccc(OC(=O)[C@@H](CCSC)NC(=O)OCc3ccccc3)c(OC)c2)ccc1OC(=O)[C@@H](CCSC)NC(=O)OCc1ccccc1,4.68

# System: Rattus norvegicus
# Assay: Antiinflammatory activity in Wistar rat model of carrageenan-induced paw edema assessed as reduction in thickness of paw edema at 10 mg/kg, ip pretreated for 1 hr followed by carrageenan challenge and measured after 3 hrs (reference value: 1.79 +/-0.07 mm)
# Type: functional
# Conditions: time 4 hrs
row,Compound,Activity [mm]
1,COc1cc(/C=C/C(=O)/C=C(O)/C=C/c2ccc(OC(=O)[C@@H](CCSC)NC(=O)OCc3ccccc3)c(OC)c2)ccc1OC(=O)[C@@H](CCSC)NC(=O)OCc1ccccc1,0.27

# System: Salmonella typhimurium
# Assay: Antibacterial activity against Salmonella typhimurium ATCC 19430 incubated for 18 hrs by agar dilution assay
# Type: functional, Salmonella enterica subsp. enterica serovar Typhimurium
# Conditions: Salmonella enterica
row,MIC,Compound
1,0.5 µg/mL and 0.556 µM,COc1cc(/C=C/C(=O)/C=C(O)/C=C/c2ccc(OC(=O)[C@@H](CCSC)NC(=O)OCc3ccccc3)c(OC)c2)ccc1OC(=O)[C@@H](CCSC)NC(=O)OCc1ccccc1

# System: Pseudomonas aeruginosa
# Assay: Antibacterial activity against Pseudomonas aeruginosa ATCC 27853 incubated for 18 hrs by agar dilution assay
# Type: functional
# Conditions: not given
row,MIC,Compound
1,1 µg/mL and 1.11 µM,COc1cc(/C=C/C(=O)/C=C(O)/C=C/c2ccc(OC(=O)[C@@H](CCSC)NC(=O)OCc3ccccc3)c(OC)c2)ccc1OC(=O)[C@@H](CCSC)NC(=O)OCc1ccccc1

# System: Rattus norvegicus
# Assay: Anti-inflammatory activity in Wistar rat assessed as inhibition of carrageenan-induced paw edema at 10 mg/kg, ip pretreated for 1 hr followed by carrageenan challenge and measured after 4 hr relative to indomethacin
# Type: functional
# Conditions: time 5 hrs
row,Compound,inhibition in vivo at 10 mg/kg [%]
1,COc1cc(/C=C/C(=O)/C=C(O)/C=C/c2ccc(OC(=O)[C@@H](CCSC)NC(=O)OCc3ccccc3)c(OC)c2)ccc1OC(=O)[C@@H](CCSC)NC(=O)OCc1ccccc1,108

# System: not listed separately
# Assay: Ulcerogenic activity in fasted albino mouse assessed as average number of ulcers in gastric mucosa at 10 mg/kg, po for 3 days (reference value: 0)
# Type: toxicity, organism-based
# Conditions: in vivo, 72 h, time 3 day
row,Compound,Activity
1,COc1cc(/C=C/C(=O)/C=C(O)/C=C/c2ccc(OC(=O)[C@@H](CCSC)NC(=O)OCc3ccccc3)c(OC)c2)ccc1OC(=O)[C@@H](CCSC)NC(=O)OCc1ccccc1,0

# System: Mus musculus
# Assay: Analgesic activity in albino mouse assessed as protection at 10 mg/kg, ip measured after 120 mins by hot plate test relative to indomethacin
# Type: functional
# Conditions: 2 h
row,Compound,Activity [%]
1,COc1cc(/C=C/C(=O)/C=C(O)/C=C/c2ccc(OC(=O)[C@@H](CCSC)NC(=O)OCc3ccccc3)c(OC)c2)ccc1OC(=O)[C@@H](CCSC)NC(=O)OCc1ccccc1,187.1

# System: Rattus norvegicus
# Assay: Anti-inflammatory activity in Wistar rat assessed as inhibition of carrageenan-induced paw edema at 10 mg/kg, ip pretreated for 1 hr followed by carrageenan challenge and measured after 24 hr relative to control (reference value: 0.00 +/-0.3 %)
# Type: functional
# Conditions: time 25 hrs
row,Compound,inhibition in vivo at 10 mg/kg [%]
1,COc1cc(/C=C/C(=O)/C=C(O)/C=C/c2ccc(OC(=O)[C@@H](CCSC)NC(=O)OCc3ccccc3)c(OC)c2)ccc1OC(=O)[C@@H](CCSC)NC(=O)OCc1ccccc1,90

# System: Peritoneal macrophage
# Assay: Antiinflammatory activity in […] mouse Peritoneal macrophages assessed as reduction in LPS-induced NO production by measuring reduction in stimulation index at 10 uM preincubated for 1 hr followed by LPS stimulation measured after 24 hrs by Griess method (reference value: 27.31 +/- 2.56 uM)
# Type: functional
# Conditions: time 25 hrs
row,Compound,Activity [µM]
1,COc1cc(/C=C/C(=O)/C=C(O)/C=C/c2ccc(OC(=O)[C@@H](CCSC)NC(=O)OCc3ccccc3)c(OC)c2)ccc1OC(=O)[C@@H](CCSC)NC(=O)OCc1ccccc1,16.16

# System: Splenocyte
# Assay: Immunomodulatory activity in Swiss albino mouse splenocytes assessed as cell viability at 10 uM by measuring stimulation index incubated for 72 hrs in presence of mitogenic stimulus phytohaemagglutinin by MTT assay (reference value: 1.00 +/- 0.24)
# Type: functional
# Conditions: not given
row,Compound,Activity_index
1,COc1cc(/C=C/C(=O)/C=C(O)/C=C/c2ccc(OC(=O)[C@@H](CCSC)NC(=O)OCc3ccccc3)c(OC)c2)ccc1OC(=O)[C@@H](CCSC)NC(=O)OCc1ccccc1,1.37

# System: Rattus norvegicus
# Assay: Anti-inflammatory activity in Wistar rat assessed as inhibition of carrageenan-induced paw edema at 10 mg/kg, ip pretreated for 1 hr followed by carrageenan challenge and measured after 2 hr relative to control (reference value: 0.00 +/-0.03 %)
# Type: functional
# Conditions: time 3 hrs
row,Compound,inhibition in vivo at 10 mg/kg [%]
1,COc1cc(/C=C/C(=O)/C=C(O)/C=C/c2ccc(OC(=O)[C@@H](CCSC)NC(=O)OCc3ccccc3)c(OC)c2)ccc1OC(=O)[C@@H](CCSC)NC(=O)OCc1ccccc1,80

# System: Mus musculus
# Assay: Analgesic activity in albino mouse assessed as forepaw licking/jumping latency time at 10 mg/kg, ip measured after 90 mins by hot plate test (reference value: 2.72 +/- 0.01 sec)
# Type: functional
# Conditions: 1.5 h
row,Compound,Time [s]
1,COc1cc(/C=C/C(=O)/C=C(O)/C=C/c2ccc(OC(=O)[C@@H](CCSC)NC(=O)OCc3ccccc3)c(OC)c2)ccc1OC(=O)[C@@H](CCSC)NC(=O)OCc1ccccc1,4.88
